Experimental data as given in EP2135864A1, “5-(4-methanesulfonyl-phenyl)-thiazole derivatives for the treatment of acute and chronic inflammatory diseases” (FAES FARMA, S.A., priority 2008, dated 2009).

Key:
IL-10 = IL-10 production by PBMC from healthy volunteers, CBA; assay type: cell-based, human; conditions: 24 hours, mean ± standard error, n=13
Experimental: CBA protocol was followed according to the manufacturer's instructions. The election of microparticles was performed following the summary of Figure 1.
The acquisition on samples was performed with the BD FACS Array Bioanalyser System (FACSArray, Becton Dickinson, San José, CA, USA) and the analysis of the results was completed with the software FCAP Array (Becton Dickinson) in a PC computer.
Briefly, the experimental protocol consisted of a plate pre-washing out with Wash Buffer. After decantation, the mixture of capture microparticles was re-suspended in the vortex. Standards and samples were added in the adequate dilution. After permanent stirring incubation during 1 h, the PE detection reagent was added and incubated again during 2h at room temperature. After a washing-out, the acquisition was performed in the flow cytometer. Table 3. -Kit CBA Human Soluble Protein Multiplex Flex Set System.
The effects of compound 12 on IL-10 production by the PBMC from healthy volunteers and patients with rheumatoid arthritis were investigated in the presence and absence of LPS stimulation and with the combination of monoclonal antibodies anti-CD3 and anti-CD28. PBMC (5 x 10^4 cells per well) from 13 healthy volunteers were cultured in duplicate 200 µl of complete medium supplemented with the highest solvent concentration (10^-6 M), and 10^-6 M, 10^-7 M and 10^-8 M of compound 12, in the presence and absence of either LPS (10 µg/ml) or anti-CD3 (12.5 ng/ml), + anti-CD28 (1/3x10^5), during 24 hours.
On the other hand, PBMC (5 x 10^4 cells per well) from 8 patients with rheumatoid arthritis were cultured in duplicate in 200 µl of complete medium supplemented with the highest solvent concentration (10^-6 M), and 10^-6 M, 10^-7 M and 10^-8 M of compound 12 in the presence and absence of either LPS (10 µg/ml) or anti-CD3 (12.5 ng/ml), + anti-CD28 (1/3x10^5), during 24 hours. Culture supernatants were frozen at -20°C and IL-10 concentration was assayed by BD FACS Array Bioanalyser by using CBA Flex Set, specific to determine IL-10 concentration, following the manufacturer instructions.

CD62L = experiment: Shedding of CD62L in lymphocytes of PBMC, flow cytometry; assay type: cell-based, human; conditions: lymphocytes of PBMC from healthy volunteers, mean ± standard error, n=10, vehicle 112.68±13.57
Experimental: Direct immuno-fluorescence techniques of one colour with monoclonal antibodies phycoerythrin-labeled (PE) was used. PE is a fluorescent substance excitable with a 488 nm laser, which emits at 570 nm, and it is detectable and easily distinguishable by a flow cytometer. By using the antibody described in Table 1, a direct labelling was performed: PBMC labelling: the process consisted in a labelling using 96 well V bottom plates. In each well, 5 x 10^4 cells are located, and afterwards centrifugated at 400 xg during 5 minutes. After washing-out, cells are re-suspended and 5 µl of the corresponding monoclonal antibody are added. Cells are again re-suspended and the plate is incubated in darkness, during 20 minutes, at 4°C. Subsequently, 150 µl PBS are added and two wash-outs are performed. Finally, it is re-suspended in 150 µl PBS and collected in a cytometer tube, adding PBS up to a final volume of 0.3 ml. For the counting, a FACSCalibur flow cytometer equipped with argon laser tuned at 488 nm was used in order to induce phycoerythrin fluorescence. The equipment, apart from the fluorescence channels, also provided information about the size (FSC) and cellular complexity (SSC). […]
Table 14. -Mean fluorescence intensity of surface CD62L expression in lymphocytes. p values correspond to data with respect to the vehicle for each experimental condition.

For `Cc1nc(OC2CCCC2)c(-c2ccc(S(C)(=O)=O)cc2)s1` [compound 12, 4-cyclopentyloxy-5-(4-methylsulfonyl-phenyl)-2-methylthiazole], the “IL-10 production by PMBC from healthy volunteers” value (from here on “IL-10 production by PMBC”) (IL-10; LPS (10µg/ml), 10^-6 M, vehicle 2342.20±384.02, p 0.507) was 2420.68±455.50 (0.507) pg/mL, the “IL-10 production by PMBC” value (IL-10; LPS (10µg/ml), 10^-7 M, vehicle 2342.20±384.02, p 0.507) was 2392.99±427.86 (0.507) pg/mL and the “IL-10 production by PMBC” value (IL-10; LPS (10µg/ml), 10^-8 M, vehicle 2342.20±384.02, p 0.701) was 2389.63±366.01 (0.701) pg/mL. The “IL-10 production by PMBC” value (IL-10; anti-CD3 (12.5 ng/ml) + anti-CD28 (1/3x10^5), 10^-6 M, vehicle 1042.64±162.36, p 0.507) was 1239.47±251.24 (0.507) pg/mL, the “IL-10 production by PMBC” value (IL-10; anti-CD3 (12.5 ng/ml) + anti-CD28 (1/3x10^5), 10^-7 M, vehicle 1042.64±162.36, p 0.382) was 1132.69±213.32 (0.382) pg/mL and the “IL-10 production by PMBC” value (IL-10; anti-CD3 (12.5 ng/ml) + anti-CD28 (1/3x10^5), 10^-8 M, vehicle 1042.64±162.36, p 0.507) was 1122.51±211.03 (0.507) pg/mL. For the same compound, the “IL-10 production by PMBC” value (IL-10; medium, 10^-6 M, vehicle 490.46±87.16, p 0.753) was 559.06±112.20 (0.753) pg/mL, the “IL-10 production by PMBC” value (IL-10; medium, 10^-7 M, vehicle 490.46±87.16, p 0.701) was 609.10±108.74 (0.701) pg/mL and the “IL-10 production by PMBC” value (IL-10; medium, 10^-8 M, vehicle 490.46±87.16, p 0.861) was 578.66±106.20 (0.861) pg/mL. For the same compound, the “Mean fluorescence intensity of surface CD62L expression in lymphocytes (MFI)” value (CD62L; 10^-6 M, p 0.47 as printed) was 90.01±8.93 (0.47) and the “Mean fluorescence intensity of surface CD62L expression in lymphocytes (MFI)” value (CD62L; 10^-7 M, p 0.333) was 116.90±11.02 (0.333).
